# Laboratory results published in patent US20070054848A1, “Composition and method for nerve regeneration” (priority 2003, published 2007).
# “Also recorded” adds a separate entry of the source. Where no end group is shown, it is not given here. The star is where a group is joined. TAT = PTD (protein transduction domain) peptide fused to the peptide; Myristoyl = CCCCCCCCCCCCCC(=O)*
# Key:
# [1] = tested on: cerebellar granule neurons from P7 rats; assay: Neurite outgrowth assay, cerebellar neurons; format: cell-based, rat; details: P7 rat cerebellar granule neurons
# [2] = tested on: cerebellar granule neurons; assay: Fluorescence Ca2+ imaging (Oregon-green 488BAPTA-1 and Fura Red); format: cell-based; details: p7 rat cerebellar granule neurons
# p75 [3] = target: T1, p75 (Homo sapiens, UniProt P08138); assay: Co-precipitation of p75 and Rho GDI with purified recombinant proteins; format: binding; details: 1 μM GST-Rho GDI and Pep5 at the indicated concentrations
# T1 construct: host or cells: 293T cells (p75)
# T1 sequence (P08138 29-427): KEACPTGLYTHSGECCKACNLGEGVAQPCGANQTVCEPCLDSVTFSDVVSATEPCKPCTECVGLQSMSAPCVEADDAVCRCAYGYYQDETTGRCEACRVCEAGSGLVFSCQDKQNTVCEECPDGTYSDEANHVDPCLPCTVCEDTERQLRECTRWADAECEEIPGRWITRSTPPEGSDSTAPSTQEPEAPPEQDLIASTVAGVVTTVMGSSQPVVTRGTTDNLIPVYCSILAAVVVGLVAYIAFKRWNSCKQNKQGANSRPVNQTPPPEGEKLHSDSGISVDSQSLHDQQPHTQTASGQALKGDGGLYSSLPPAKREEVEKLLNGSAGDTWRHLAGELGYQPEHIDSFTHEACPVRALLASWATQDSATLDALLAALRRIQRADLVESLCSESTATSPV
# [4] = tested on: superior cervical ganglion neurons; format: cell-based; details: 100 ng/ml BDNF; data not shown
# hippocampal neurons = format: cell-based; details: data not shown
# DRG neurons = assay: Neurite outgrowth assay, DRG neurons; format: cell-based, mice
# p75 [5] = target: T2, p75 (Mus musculus, UniProt Q9Z0W1); assay: Co-precipitation of p75 with recombinant GST-Pep5; format: binding; details: lysates prepared from post-natal cerebellum
# T2 construct: was incubated with lysates prepared from post-natal cerebellum that abundantly express p75; from tissue; host or cells: post-natal cerebellum
# T2 sequence (Q9Z0W1 32-427): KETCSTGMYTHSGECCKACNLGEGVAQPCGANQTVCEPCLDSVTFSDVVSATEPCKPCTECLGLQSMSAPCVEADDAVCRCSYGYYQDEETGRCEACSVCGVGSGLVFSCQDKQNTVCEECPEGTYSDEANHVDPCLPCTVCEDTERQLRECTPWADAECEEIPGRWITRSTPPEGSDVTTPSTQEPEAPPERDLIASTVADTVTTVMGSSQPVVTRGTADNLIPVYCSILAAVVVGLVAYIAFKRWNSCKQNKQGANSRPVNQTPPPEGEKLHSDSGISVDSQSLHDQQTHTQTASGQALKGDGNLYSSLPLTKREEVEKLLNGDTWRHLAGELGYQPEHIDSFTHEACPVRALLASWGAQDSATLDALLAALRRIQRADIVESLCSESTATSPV
# Text: As all the myelin-derived inhibitors of axonal regeneration identified so far act on neurons through p75, intervening with p75 signaling after injury to the central nervous system may alleviate myelin-dependent inhibition of axonal regeneration. […] The specific peptide ligand to the p75 HD was previously obtained from a combinatorial library (Ilag, L. L. et al., Biochem Biophys Res Commun. 255, 104-109 (1999)). This ligand is a 15 amino acid residue peptide (Pep5; […] (SEQ ID NO: 2)) and the binding site was mapped by nuclear magnetic resonance spectroscopy onto a hydrophobic patch framed by helices 5 and 6. […] The present inventors first confirmed whether p75 associates with Pep5. Glutathione S-transferase-fusion protein containing Pep5 (GST-Pep5) was incubated with lysates prepared from post-natal cerebellum that abundantly express p75. […] Therefore, Pep5 has a potential to disrupt the signal mediated by p75 in vitro. As the peptide ligand must gain entry into the cell if it is to act directly on the p75 HD in vivo, the present inventors generated Pep5 fused with the amino-terminal 11 amino acid protein transduction domain (PTD domain) from the human immunodeficiency virus protein, TAT (TAT-Pep5) (Schwarze, S. R., Ho, A., Vocero-Akbani, A. & Dowdy, S. F., Science 285, 1569-1572 (1999)). […] Thus, Pep5 may be used as an inhibitor of Rho GDI association with p75.
# RhoA [6] = assay: Affinity-precipitation of GTP-RhoA; format: cell-based; details: P7 rat cerebellar neurons
# Description: Cells were lysed in 50 mM Tris, pH 7.5, 1% Triton X-100, 0.5% sodium deoxycholate, 0.1% SDS, 500 mM NaCl, 10 mM MgCl2, with leupeptin and aprotinin, each at 10 μg/ml (Tang S. et al., J. Cell Biol., 138, 1355-1366 (1997)). Cell lysates were clarified by centrifugation at 13,000 g at 4° C. for 10 min, and the supernatants were incubated with the 20 μg of GST-Rho binding domain of Rhotekin beads (Upstate Biotechnology) at 4° C. for 45 min. The beads were washed 4 times with washing buffer (50 mM Tris, pH 7.5 containing 1% Triton X-100, 150 mM NaCl, 10 mM MgCl2, 10 μg/ml leupeptin, and 10 μg/ml aprotinin). Bound Rho proteins were detected by Western blotting using a monoclonal antibody against RhoA (Santa Cruz Biotechnology).
# To address this, we measured RhoA activity in the neurons. Using the RhoA-binding domain of the effector protein Rhotekin (Ren, X. D. et al., EMBO J., 18, 578-585 (1999)), the GTP-bound form of RhoA can be affinity-precipitated. […] The PKC inhibitor had no effect on the Rho activity induced by MAG-Fc or the Nogo peptide. Thus, promotion of neurite outgrowth of the cerebellar neurons by inhibition of PKC was not mediated by the block of RhoA activation, showing that PKC is not upstream of RhoA.
# DRG neurons from P1 rats = assay: Neurite outgrowth assay, dissociated DRG neurons; format: cell-based, rat
# [7] = tested on: E12 chick dorsal root ganglia explants; assay: Growth cone collapse assay; format: cell-based; details: chick E12 DRG explants; myelin 0.1 to 10 ng/μl
# Description: Explants of E12 chick dorsal root ganglia were incubated for 24 hours on plastic slides precoated with 100 μg/ml poly-L-lysine, and were treated for 30 minutes with soluble CNS myelin extracts (Sigma) at the indicated concentrations (MAG-Fc (25 μg/ml) or the Nogo peptide (4 μM)). Explants were fixed in 4% (wt/vol) paraformaldehyde, and were stained with fluorescence-labeled phalloidin (Sigma).
# nerve regeneration = assay: Similar experiments with modified amino acid agents (Example 2-8)
# Description: Similar experiments were carried out using Pep5 in which alanine was added to the C terminus of the sequence (SEQ ID NO: 2), antibodies for the extracellular domain of p75, and p75 in which alanine was replaced with valine at amino acid 423 in positions 273-427 of SEQ ID NO: 4.
# RhoA [8] = assay: Affinity-precipitation of GTP-RhoA in cerebellar neurons; format: cell-based, mice; details: post-natal cerebellar neurons; TAT-Pep5 (1 μM)
# Description: 293 cells were transfected with pcDNA3 vectors containing wild type RhoA whose NH2-terminus is tagged with HA (Yamashita, T. et al., Neuron. 24:585-593, 1999) and/or full-length human p75 by lipofection using Lipofectamine 2000 (Gibco BRL). Cerebellar neurons from P9 mice were isolated as described previously (Cai et. al, Neuron, 22:89-101, 1999). Cells were lysed in 50 mM Tris (pH 7.5), 1% Triton X-100, 0.5% sodium deoxycholate, 0.1% SDS, 500 mM NaCl, 10 mM MgCl2, with leupeptin and aprotinin, each at 10 μg/ml. Cell lysates were clarified by centrifugation at 13,000×g at 4° C. for 10 min, and the supernatants were incubated with the 20 μg of GST-Rho binding domain of Rhotekin beads (Upstate Biotech.) at 4° C. for 45 min. The beads were washed 4 times with washing buffer (50 mM Tris (pH 7.5) containing 1% Triton X-100, 150 mM NaCl, 10 mM MgCl2, 10 μg/ml each of leupeptin and aprotinin). Bound Rho proteins were detected by Western blotting using a monoclonal antibody against RhoA (Santa Cruz Biotechnology).
# Amino-terminally FLAG-tagged human p75 or the deletion mutants of p75 ICD were cloned into pcDNA3.1 expression plasmid, and were transfected with 293T cells. […] Bound Rho proteins were detected by Western blotting using a monoclonal antibody against RhoA (Santa Cruz Biotechnology).
# spinal cord [9] = assay: Spinal cord injury in rats (dorsal half dissected), BBB score; format: in vivo, rat; details: 200 g male Wistar rats; continuous osmotic pump to the injured site
# spinal cord [10] = assay: Similar spinal cord experiments in mice (Example 2-7); format: in vivo
# [11] = target: T3, interaction of p75 with Rho GDI (Mus musculus, UniProt Q9Z0W1); assay: Co-immunoprecipitation of endogenous p75 and Rho GDI in cerebellar neurons; format: cell-based, mice; details: dissociated cerebellar neurons
# T3 construct: endogenous in cells; host or cells: primary cerebellar neurons from P9 mice
# T3 sequence (Q9Z0W1 32-427): T2 sequence (Q9Z0W1 32-427)
# cerebellar neurons = assay: Neurite outgrowth assay, post-natal cerebellar neurons; format: cell-based, mice; details: post-natal cerebellar neurons
# spinal cord [12] = assay: Spinal cord injury in rats, p21 / TAT-bound p21, BBB score; format: in vivo, rat; details: 200 g male Wistar rats; osmotic pump for 2 weeks; observed from day 2 for 6 weeks
# [13] = target: catalytic domain of Rho-kinase (GST-CAT) (Bos taurus, UniProt Q28021); assay: In vitro binding assay of p21 and Rho-kinase (GST-CAT); details: GST-CAT; aa 6-553
# Chain of catalytic domain of Rho-kinase (GST-CAT) (Q28021 6-553 limits assumed): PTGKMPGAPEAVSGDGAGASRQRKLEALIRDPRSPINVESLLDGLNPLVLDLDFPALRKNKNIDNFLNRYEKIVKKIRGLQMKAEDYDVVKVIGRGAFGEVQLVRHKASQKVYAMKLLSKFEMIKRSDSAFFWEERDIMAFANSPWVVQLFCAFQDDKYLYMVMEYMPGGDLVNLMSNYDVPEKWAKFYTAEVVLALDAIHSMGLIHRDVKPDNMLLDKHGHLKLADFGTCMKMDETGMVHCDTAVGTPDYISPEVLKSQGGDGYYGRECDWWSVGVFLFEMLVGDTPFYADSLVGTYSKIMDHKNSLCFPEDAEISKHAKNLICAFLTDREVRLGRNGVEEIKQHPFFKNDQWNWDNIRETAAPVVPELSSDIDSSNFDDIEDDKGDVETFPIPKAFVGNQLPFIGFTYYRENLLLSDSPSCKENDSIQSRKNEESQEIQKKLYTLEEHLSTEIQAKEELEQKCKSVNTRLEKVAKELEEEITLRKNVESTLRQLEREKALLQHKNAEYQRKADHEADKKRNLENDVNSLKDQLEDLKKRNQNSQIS
molecule,measurement,setting,value
COc1ccc2c(c1)CC[C@@H]1[C@@H]2CC[C@]2(C)[C@@H](NCCCCCCN3C(=O)C=CC3=O)CC[C@@H]12 [U73122],modulation of neurite outgrowth inhibition by MAG-Fc or the Nogo peptide,[1],neither PTX nor U73122 modulated
same,effect on Ca2+ elevation induced by MAG,[2],blocked
CFFRGGFFNHNPRYC [Pep5],association of p75 with Rho GDI,p75 [3],inhibited the association of p75 with Rho GDI dose dependently; also recorded: inhibits the binding of p75 with Rho GDI dose dependently
same,cell death of superior cervical ganglion neurons,[4],did not inhibit
same,NGF-induced promotion of the neurite outgrowth,hippocampal neurons,did not inhibit
same,neurite outgrowth of neurons which express the short isoform but not the full-length p75,DRG neurons,did not affect the neurite outgrowth
GST-Pep5: Glutathione S-transferase-fusion protein containing Pep5,co-precipitation of p75,p75 [5],revealed the presence of a protein corresponding to p75
"PKC inhibitor: cell permeable PKC inhibitor 20-28 (Calbiochem), specific membrane permeable PKC inhibitor peptide (Myristoyl-FARKGALRQ; not fully specified (C-terminus); UniProt P17252 20-28, looked up, fragment)",neurite outgrowth (substance alone),"[1]; MAG-Fc 25 μg/ml, Nogo peptide 4 μM",no effect on the growth
same,effect on Rho activity induced by MAG-Fc or the Nogo peptide,RhoA [6],no effect
same,modulation of MAG-Fc effect on neurite outgrowth,DRG neurons from P1 rats,no modulating effect
same,effect on growth cone collapse mediated by myelin,[7],completely reversed
Pep5 in which alanine was added to the C terminus: Pep5 in which alanine was added to the C terminus of the sequence (SEQ ID NO: 2) (CFFRGGFFNHNPRYC),nerve regeneration,nerve regeneration,nerve regeneration was similarly observed
"TAT-CFFRGGFFNHNPRYC ({TAT}-CFFRGGFFNHNPRYC; cysteine pairing not given here; also: TAT (PTD) sequence not fixed) [TAT-Pep5, Pep5 fused with the amino-terminal 11 amino acid protein transduction domain from HIV TAT]",activation of RhoA induced by MAG-Fc or the Nogo peptide,RhoA [8],inhibited the activation of RhoA; also recorded: completely abolishes these effects
same,nerve regeneration after spinal cord injury,spinal cord [9],nerve regeneration was significantly observed
same,nerve regeneration,spinal cord [10],nerve regeneration was similarly observed
same,interaction of p75 with Rho GDI induced by MAG-Fc,[11],significantly inhibited; also recorded: diminished
same,inhibitory effect of MAG (25 μg/ml) and the Nogo peptide (4 μM) on neurite outgrowth,cerebellar neurons,efficiently silenced the inhibitory effect
same,"responsiveness of DRG neurons to MAG (25 μg/ml) and the Nogo peptide (4 μM), neurite outgrowth",DRG neurons; added exogenously at 100 nM,abolished their responsiveness
"p21: Recombinant full-length p21 (1-164 in SEQ ID NO: 23), cyclin-dependent protein kinase inhibitor",functional recovery after spinal cord injury (BBB score),spinal cord [12],an effect was not sufficiently observed
same,in vitro interaction with Rho-kinase,[13],bound to each other in vitro
